Patent US8518947B2, “(Heterocycle/tetrahydropyridine)-(piperazinyl)-1-alcanone and (heterocycle/dihydropyrrolidine)-(piperazinyl)-1-alcanone derivatives, and use thereof as p75 inhibitors” (Sanofi, priority 2009, dated 2013)
Counter-ions that a name gives are not always drawn.

Structure (SMILES)	melting point [°C]
O=C(CN1CC2CCC(C1)N2c1ncc(F)cn1)N1CC=C(c2cccc3ccsc23)CC1	112 to 113
Cn1nnnc1-c1ccc(N2C3CCC2CN(CC(=O)N2CC=C(c4cccc5ccoc45)CC2)C3)nc1	178 to 180
Cc1cc2cc(C3=CCN(C(=O)CN4CC5CCC(C4)N5c4ncc(F)cn4)CC3)ccc2s1	177 to 179
O=C(CN1CC2CCC(C1)N2c1ncc(F)cn1)N1CC=C(c2cccc3ccoc23)CC1	157 to 158
O=C(CN1CC2CCC(C1)N2c1ncc(F)cn1)N1CC=C(c2ccc3c(c2)OCCO3)CC1	163 to 165
O=C(CN1CC2CCC(C1)N2c1ncc(F)cn1)N1CC=C(c2nccc3sccc23)CC1	167 to 168
O=C(CN1CC2CCC(C1)N2c1ncc(F)cn1)N1CC=C(c2csc3ccccc23)CC1	172 to 174
COC(=O)c1ccc(N2C3CCC2CN(CC(=O)N2CC=C(c4cccc5ccsc45)CC2)C3)nc1	153 to 154
COC(=O)c1ccc(N2C3CCC2CN(CC(=O)N2CC=C(c4ccc5sccc5c4)CC2)C3)nc1	150 to 151
COC(=O)c1ccc(N2C3CCC2CN(CC(=O)N2CC=C(c4nccc5sccc45)CC2)C3)nc1	170 to 171
COC(=O)c1ccc(N2C3CCC2CN(CC(=O)N2CC=C(c4ccc5sc(C)cc5c4)CC2)C3)nc1	179 to 180
COC(=O)c1ccc(N2C3CCC2CN(CC(=O)N2CC=C(c4cccc5ccoc45)C2)C3)nc1	169 to 170
O=C(O)c1ccc(N2C3CCC2CN(CC(=O)N2CC=C(c4cccc5ccoc45)C2)C3)nc1	188 to 189
O=C(O)c1ccc(N2C3CCC2CN(CC(=O)N2CC=C(c4cccc5ccsc45)C2)C3)nc1	189 to 190
Cc1cc2cc(C3=CCN(C(=O)CN4CC5CCC(C4)N5c4ccc(C#N)cn4)CC3)ccc2s1	171 to 172
O=C(CN1CC2CCC(C1)N2c1cccnc1)N1CC=C(c2cccc3ccoc23)CC1	121 to 123
N#Cc1ccc(N2C3CCC2CN(CC(=O)N2CC=C(c4cccc5ccoc45)CC2)C3)nc1	184 to 185
Cc1cc2cc(C3=CCN(C(=O)CN4CC5CCC(C4)N5c4ccc(C(=O)OC5CCC5)cn4)CC3)ccc2s1	153 to 154
C[C@@H]1CN(c2ncc(F)cn2)C[C@H](C)N1CC(=O)N1CC=C(c2cccc3ccoc23)CC1 (as salt: HCl) [Compound 36, 1-(4-benzofuran-7-yl-3,6-dihydro-2H-pyridin-1-yl)-2-[(2S,6R)-4-(5-fluoropyrimidin-2-yl)-2,6-dimethylpiperazin-1-yl]ethanone]	174 to 175
C[C@@H]1CN(c2ccc(C(F)(F)F)nc2)C[C@H](C)N1CC(=O)N1CC=C(c2cccc3ccsc23)CC1 (as salt: HCl) [Compound 54, 1-(4-benzo[b]thiophen-7-yl-3,6-dihydro-2H-pyridin-1-yl)-2-[(2S,6R)-2,6-dimethyl-4-(6-trifluoromethylpyridin-3-yl)piperazin-1-yl)ethanone]	225 to 226
COC(=O)c1cc2cccc(C3=CCN(C(=O)CN4[C@H](C)CN(c5ccc(C(F)(F)F)cn5)C[C@@H]4C)CC3)c2s1 (as salt: HCl) [Compound 66, Methyl 7-(1-{2-[(2S,6R)-2,6-dimethyl-4-(5-trifluoromethylpyridin-2-yl)piperazin-1-yl]acetyl}-1,2,3,6-tetrahydropyridin-4-yl)benzo[b]thiophene-2-carboxylate]	138 to 141
O=C(CN1CC2CCC(C1)N2c1ncc(F)cn1)N1CC=C(c2c[nH]c3cc(F)ccc23)CC1 (as salt: oxalate)	95 to 96
O=C(CN1CCN(c2ccnc3cc(Cl)ccc23)CC1)N1CC=C(c2cccc3ccoc23)CC1 (as salt: oxalate) [Compound 99, 1-(4-benzofuran-7-yl-3,6-dihydro-2H-pyridin-1-yl)-2-[4-(7-chloroquinolin-4-yl)piperazin-1-yl]ethanone]	99 to 100
C[C@@H]1CN(c2ccc(-c3nccs3)cn2)C[C@H](C)N1CC(=O)N1CC=C(c2cccc3ccoc23)CC1 (as salt: oxalate) [Compound 119, 1-(4-benzofuran-7-yl-3,6-dihydro-2H-pyridin-1-yl)-2-[(2S,6R)-2,6-dimethyl-4-(5-thiazol-2-ylpyridin-2-yl)piperazin-1-yl]ethanone]	140 to 145
C[C@@H]1CN(c2ccc(-c3nnn(C)n3)cn2)C[C@H](C)N1CC(=O)N1CC=C(c2cccc3ccoc23)CC1 (as salt: oxalate) [Compound 120, 1-(4-benzofuran-7-yl-3,6-dihydro-2H-pyridin-1-yl)-2-{(2S,6R)-2,6-dimethyl-4-[5-(2-methyl-2H-tetrazol-5-yl)pyridin-2-yl]piperazin-1-yl}ethanone]	165 to 170
O=C(O)c1ccc(N2C3CCC2CN(CC(=O)N2CC=C(c4cccc5ccsc45)CC2)C3)nc1 [85]	191 to 192
C[C@@H]1CN(c2cncnc2)C[C@H](C)N1CC(=O)N1CC=C(c2cccc3ccoc23)CC1 [Compound 35, 1-(4-benzofuran-7-yl-3,6-dihydro-2H-pyridin-1-yl)-2-((2S,6R)-2,6-dimethyl-4-pyrimidin-5-ylpiperazin-1-yl)ethanone]	142 to 143
C[C@@H]1CN(c2ccc(C(F)(F)F)nc2)C[C@H](C)N1CC(=O)N1CC=C(c2cccc3ccoc23)CC1 [Compound 37, 1-(4-benzofuran-7-yl-3,6-dihydro-2H-pyridin-1-yl)-2-[(2S,6R)-2,6-dimethyl-4-(6-trifluoromethylpyridin-3-yl)piperazin-1-yl]ethanone]	119 to 120

Continued, values first:

melting point [°C]	Structure (SMILES)
207 to 210	O=C(CN1CC2CCC(C1)N2c1ncc(F)cn1)N1CC=C(c2coc3ccccc23)CC1
158 to 159	COC(=O)c1ccc(N2C3CCC2CN(CC(=O)N2CC=C(c4cccc5ccoc45)CC2)C3)nc1
159 to 160	O=C(O)c1ccc(N2C3CCC2CN(CC(=O)N2CC=C(c4nccc5sccc45)CC2)C3)nc1
160 to 161	Cc1cc2cc(C3=CCN(C(=O)CN4CC5CCC(C4)N5c4ccc(C(=O)O)cn4)CC3)ccc2s1
172 to 173	COC(=O)c1ccc(N2C3CCC2CN(CC(=O)N2CC=C(c4cccc5ccsc45)C2)C3)nc1
172 to 174	COC(=O)c1ccc(N2C3CCC2CN(CC(=O)N2CC=C(c4ccc5c(c4)OCCO5)CC2)C3)nc1
230 to 232	O=C(CN1CC2CCC(C1)N2c1ccc(-c2noc(=O)[nH]2)cn1)N1CC=C(c2cccc3ccoc23)CC1
192 to 193	C[C@@H]1CN(c2ccc3ccccc3n2)C[C@H](C)N1CC(=O)N1CC=C(c2cccc3ccsc23)CC1 (as salt: HCl) [Compound 19, 1-(4-benzo[b]thiophen-7-yl-3,6-dihydro-2H-pyridin-1-yl)-2-((2S,6R)-2,6-dimethyl-4-quinolin-2-ylpiperazin-1-yl)ethanone]
208 to 210	COC(=O)c1ccc(N2C[C@@H](C)N(CC(=O)N3CC=C(c4cccc5ccsc45)CC3)[C@@H](C)C2)nc1 (as salt: HCl) [Compound 58, Methyl 6-{(3S,5R)-4-[2-(4-benzo[b]thiophen-7-yl-3,6-dihydro-2H-pyridin-1-yl)-2-oxoethyl]-3,5-dimethylpiperazin-1-yl}nicotinate]
90 to 91	C[C@@H]1CN(c2ncc(F)cn2)C[C@H](C)N1CC(=O)N1CC=C(c2ccc3c(c2)OCCO3)CC1 (as salt: oxalate) [Compound 44, 1-[4-(2,3-dihydrobenzo[1,4]dioxin-6-yl)-3,6-dihydro-2H-pyridin-1-yl]-2-[(2S,6R)-4-(5-fluoropyrimidin-2-yl)-2,6-dimethylpiperazin-1-yl]ethanone]
100 to 101	O=C(CN1CCCN(c2cccnc2)CC1)N1CC=C(c2cccc3ccoc23)CC1 (as salt: oxalate) [Compound 78, 1-(4-benzofuran-7-yl-3,6-dihydro-2H-pyridin-1-yl)-2-(4-pyridin-3-yl-[1,4]diazepan-1-yl)ethanone]
121 to 122	O=C(O)c1ccc(N2C3CCC2CN(CC(=O)N2CC=C(c4cccc5ccsc45)CC2)C3)nc1 [71]
142 to 143	O=C(CN1CCN(c2ccc(C(F)(F)F)cn2)CC1)N1CC=C(c2ccc3c(c2)OCCO3)CC1 [Compound 21, 1-[4-(2,3-dihydrobenzo[1,4]dioxin-6-yl)-3,6-dihydro-2H-pyridin-1-yl]-2-[4-(5-trifluoromethylpyridin-2-yl)piperazin-1-yl]ethanone]
230 to 233	O=C(CN1CCN(c2ccc(C(F)(F)F)cn2)C(=O)C1)N1CC=C(c2c[nH]c3ccccc23)CC1 [Compound 30, 4-{2-[4-(1H-indol-3-yl)-3,6-dihydro-2H-pyridin-1-yl]-2-oxoethyl}-1-(5-trifluoromethylpyridin-2-yl)piperazin-2-one]
143 to 146	O=C(CN1CCN(c2ccc(C(F)(F)F)cn2)C(=O)C1)N1CC=C(c2cccc3ccsc23)CC1 [Compound 31, 4-[2-(4-benzo[b]thiophen-7-yl-3,6-dihydro-2H-pyridin-1-yl)-2-oxoethyl]-1-(5-trifluoromethylpyridin-2-yl)piperazin-2-one]
151 to 152	O=C(CN1CCN(c2ccc(C(F)(F)F)cn2)C(=O)C1)N1CC=C(c2cccc3ccoc23)CC1 [Compound 32, 4-[2-(4-benzofuran-7-yl-3,6-dihydro-2H-pyridin-1-yl)-2-oxoethyl]-1-(5-trifluoromethylpyridin-2-yl)piperazin-2-one]
155 to 156	O=C(CN1CCN(c2ccc(C(F)(F)F)cn2)CC1)N1CC=C(c2cccc3ccoc23)CC1 [Compound 33, 1-(4-benzofuran-7-yl-3,6-dihydro-2H-pyridin-1-yl)-2-[4-(5-trifluoromethylpyridin-2-yl)piperazin-1-yl]ethanone]
205 to 206	Cc1cc2cc(C3=CCN(C(=O)CN4[C@H](C)CN(c5ncc(F)cn5)C[C@@H]4C)CC3)ccc2s1 [Compound 38, 2-[(2S,6R)-4-(5-fluoropyrimidin-2-yl)-2,6-dimethylpiperazin-1-yl]-1-[4-(2-methylbenzo[b]thiophen-5-yl)-3,6-dihydro-2H-pyridin-1-yl]ethanone]
